Test results reported in US6288091A, “Antiherpes virus compounds and methods for their preparation and use” (Boehringer Ingelheim Ltd., priority 1999, dated 2001).
pEC50: −log10 of the molar value. Where two headings read alike, the source gives them in different places.

Test system: HCMV (strain AD169)
Assay: Inhibition of HCMV replication, plaque reduction assay (PRA, Hs-68 cells)
Format: cell-based, Human Cytomegalovirus (HCMV)
Conditions: read-out: PRA CMV EC50
Protocol: C) Inhibition of Human Cytomegalovirus (HCMV) Replication
The effect of compounds on the replication of HCMV has been measured by using an ELISA-based assay (ELISA) and a plaque reduction assay (PRA).
Hs-68 cells (ATCC # CRL 1635) were seeded in 12-well plates at 83,000 cells/well in 1 mL of DMEM medium (Gibco Canada Inc.) supplemented with 10% fetal bovine serum (FBS, Gibco Canada Inc.). The plates were incubated for 3 days at 37° to allow the cells to reach 80-90% confluency prior to the assay.
The medium was removed from the cells by aspiration. The cells were then infected with approximately 50 PFU of HCMV (strain AD169, ATCC VR-538) in DMEM medium supplemented with 5% inactivated FBS (assay medium). The virus was allowed to adsorb to cells for 2 h at 37°. Following viral adsorption, the medium was removed from the wells by aspiration. The cells were then incubated with or without 1 mL of appropriate concentrations of test reagent in assay medium. After 4 days of incubation at 37°, the medium was exchanged with fresh medium containing test compound and 4 days later the cells were fixed with 1% aqueous formaldehyde and stained with a 2% crystal violet solution in 20% ethanol in water. Microscopic plaques were counted using a stereomicroscope. Drug effects were calculated as a percent reduction in the number of plaques in the presence of each drug concentration compared to the number observed in the absence of drug. Ganciclovir was used as a positive control in all experiments.
The EC50 values obtained according to this assay for certain thiazolyl derivatives of this invention are listed in the following tables under the heading PRA CMV.

[1] = Human betaherpesvirus 5, AD169, Hs68, Group 1 Table 4 entries
[2] = Human betaherpesvirus 5, AD169, Hs68, Group 1 Table 3 entries
[3] = Human betaherpesvirus 5, AD169, Hs68, Group 2 Table 1 entries
[4] = Human betaherpesvirus 5, AD169, Hs68, Group 1 Table 1 entries

Q: With `Nc1nc(-c2ccc(NC(=O)CCN(Cc3ccccc3)Cc3cccnc3)cc2)cs1` [Example 29] as the molecule, how does the pEC50 (Human betaherpesvirus 5, AD169, Hs68, Group 1 Table 2 entries) read?
A: 4.85

Q: How did the pEC50 [1] turn out when `CC(C)(C)OC(=O)Nc1nc(-c2ccc(NC(=O)CCN(Cc3ccccc3)Cc3ccccc3)cc2)cs1` [Example 1] was run?
A: 5.80

Q: How did the pEC50 [2] turn out when `C[C@H](c1ccccc1)N(CC(=O)Nc1ccc(-c2csc(NC(=O)OC(C)(C)C)n2)cc1)C(=O)c1ccncc1` [Example 24] was run?
A: 5.43

Q: With `CCCCN(C)C(=O)Nc1ccc(-c2csc(NC(=O)OC(C)(C)C)n2)cc1` [Example 30] as the molecule, how does the pEC50 [3] read?
A: 5.66

Q: How did the pEC50 [3] turn out when `Nc1nc(-c2ccc(NC(=O)NCCc3c[nH]c4ccccc34)cc2)cs1` [Example 19] was run?
A: 4.92

Q: With `Nc1nc(-c2ccc(NC(=O)CN(Cc3ccccc3)C(=O)Cc3ccsc3)cc2)cs1` [Example 117] as the molecule, how does the pEC50 [4] read?
A: 4.46

Q: `CCCCN(CC#N)C(=O)Nc1ccc(-c2csc(NC(=O)OC(C)(C)C)n2)cc1` [Example 33] was tested. Which pEC50 [3] did it give?
A: 5.62

Q: With `CCCCNc1nc(-c2ccc(NC(=O)N(CCCC)CCCC)cc2)cs1` [Example 34] as the molecule, how does the pEC50 [3] read?
A: 5.00

Q: With `CN(CCc1ccncc1)C(=O)Nc1ccc(-c2csc(NC(=O)OC(C)(C)C)n2)cc1` [Example 29] as the molecule, how does the pEC50 [3] read?
A: 5.41

Q: `C[C@H](c1ccccc1)N(CC(=O)Nc1ccc(-c2csc(NC(=O)OC(C)(C)C)n2)cc1)C(=O)Cc1ccccn1` [Example 23] was tested. Which pEC50 [2] did it give?
A: 5.55

Q: `CCCCN(CC)C(=O)Nc1ccc(-c2csc(NC(=O)OC(C)(C)C)n2)cc1` [Example 31] was tested. Which pEC50 [3] did it give?
A: 5.70

Q: How did the pEC50 [4] turn out when `Cc1ccccc1CN(CC(=O)Nc1ccc(-c2csc(N)n2)cc1)C(=O)COc1c(C)cccc1C` [Example 129] was run?
A: 4.92

Q: `Cc1cc(C)nc(SCC(=O)N(CC(=O)Nc2ccc(-c3csc(N)n3)cc2)Cc2ccccc2C)n1` [Example 130] was tested. Which pEC50 [4] did it give?
A: 5.06

Q: With `CC(C)(C)NC(=O)Nc1nc(-c2ccc(NC(=O)CCN(Cc3ccccc3)Cc3ccccc3)cc2)cs1` [Example 2] as the molecule, how does the pEC50 [1] read?
A: 5.82

Q: How did the pEC50 [2] turn out when `C[C@H](c1ccccc1)N(CC(=O)Nc1ccc(-c2csc(NC(=O)OC(C)(C)C)n2)cc1)C(=O)C1CCCCC1` [Example 22] was run?
A: 5.89

Q: `Cc1ccccc1CN(CC(=O)Nc1ccc(-c2csc(N)n2)cc1)C(=O)Cc1ccsc1` [Example 132] was tested. Which pEC50 [4] did it give?
A: 4.85

Q: With `Cc1ccccc1CN(CC(=O)Nc1ccc(-c2csc(N)n2)cc1)C(=O)c1ccsc1` [Example 133] as the molecule, how does the pEC50 [4] read?
A: 4.77

Q: How did the pEC50 [3] turn out when `CCCCN(CCCC)C(=O)Nc1ccc(-c2csc(Nc3cccnc3)n2)cc1` [Example 36] was run?
A: 5.52

Q: `CC(=O)Nc1nc(-c2ccc(NC(=O)CN(C(=O)C3CCCCC3)[C@H](C)c3ccccc3)cc2)cs1` [Example 26] was tested. Which pEC50 [2] did it give?
A: 4.82

Q: `Nc1nc(-c2ccc(NC(=O)CN(Cc3ccccc3)C(=O)c3ccsc3)cc2)cs1` [Example 115] was tested. Which pEC50 [4] did it give?
A: 4.31

Q: With `Cc1ccccc1CN(CC(=O)Nc1ccc(-c2csc(N)n2)cc1)C(=O)c1cccs1` [Example 128] as the molecule, how does the pEC50 [4] read?
A: 4.55
